The assay has as its target Serotonin 5HT7 receptors (Homo sapiens (Human), UniProt P34969). In words: Radiolabel Binding Studies for Serotonin 5HT7 receptors. As to conditions: for IC50: membranes of cells expressing recombinant 5HT7 receptors; for inhibition at 10 µM: read-out: 5-HT7 % inhib @ 10 uM. As for the experimental part: Radiolabel Binding Studies for Serotonin 5HT7 receptors, method 1:
Eleven dilutions (5× assay concentration) of the compound of the disclosure and chlorpromazine are prepared in the Assay Buffer by serial dilution to yield final corresponding assay concentrations ranging from 10 pM to 10 μM.
A stock concentration of 5 nM [^3H]LSD (lysergic acid diethyl amide) is prepared in 50 mM Tris-HCl, 10 mM MgCl2, 1 mM EDTA, pH 7.4 (Assay Buffer). Aliquots (50 μl) of radioligand are dispensed into the wells of a 96-well plate containing 100 μl of Assay Buffer. Duplicate 50-μl aliquots of the compound of the disclosure test and chlorpromazine positive control reference compound serial dilutions are added.
Membrane fractions of cells expressing recombinant 5HT7 receptors (50 μL) are dispensed into each well. The membranes are prepared from stably transfected cell lines expressing 5HT7 receptors cultured on 10-cm plates by harvesting PBS-rinsed monolayers, resuspending and lysing in chilled, hypotonic 50 mM Tris-HCl, pH 7.4, centrifuging at 20,000×g, decanting the supernatant and storing at −80° C.; the membrane preparations are resuspended in 3 ml of chilled Assay Buffer and homogenized by several passages through a 26 gauge needle before using in the assay.
The 250-μl reactions are incubated at room temperature for 1.5 hours, then harvested by rapid filtration onto 0.3% polyethyleneimine-treated, 96-well filter mats using a 96-well Filtermate harvester. Four rapid 500-μl washes are performed with chilled Assay Buffer to reduce non-specific binding. The filter mats are dried, then scintillant is added to the filters and the radioactivity retained on the filters is counted in a Microbeta scintillation counter.
Raw data (dpm) representing total radioligand binding (i.e., specific+non-specific binding) are plotted as a function of the logarithm of the molar concentration of the competitor (i.e., test or reference compound).
Radiolabel Binding Studies for Serotonin 5-HT7 receptors, method 2:
A stock concentration of 5 nM [^3H]-5-Hydroxytryptamine ([^3H]-5HT) is prepared in 50 mM Tris-HCl, 10 mM MgCl2, 1 mM EDTA, pH 7.4 (Assay Buffer). Aliquots (50 μl) of radioligand are dispensed into the wells of a 96-well plate containing 100 μl of Assay Buffer. Duplicate 50-μl aliquots of the compound of the disclosure test and chlorpromazine positive control reference compound serial dilutions are added.

SMILES strings stand for the structures.

For `Nc1cc(N2CCN(CCC3CC4(CCCCC4)C(=O)O3)CC2)ccc1[N+](=O)[O-]` (centres unmarked) [Entry 160149], the half-inhibitory concentration (IC50) amounted to 500 nM and the inhibition at 10 µM amounted to 84.7%.
With `COc1ccccc1N1CCN(CCC2CC3(CCCC3)C(=O)O2)CC1` (centres unmarked) [Entry 230013], the 50% inhibitory concentration (IC50) turned out to be 146 nM and the inhibition at 10 µM amounted to 90.9%.
Turning to `O=C1OC(CCN2CCN(c3ccc4[nH]ccc4c3)CC2)CC12CCCCC2` (centres unmarked) [Entry 160146], the half-inhibitory concentration (IC50) was 65.3 nM and the inhibition at 10 µM turned out to be 97.9%.
The matching figures for `N#Cc1ccnc(N2CCN(CCC3CC4(CCCC4)C(=O)O3)CC2)c1` (centres unmarked) [Entry 230012]: 436 nM and 76.6%.
On to `CCC1(CC)CC(CCCN2CCN(c3ccc(C#N)cc3)CC2)OC1=O` (centres unmarked) [Entry 230058], for which the half-maximal inhibitory concentration (IC50) amounted to 965 nM and the inhibition at 10 µM is 78.6%.
For `O=C1OC(CCN2CCN(c3ccnc(Cl)c3)CC2)CC12CCCC2` (centres unmarked) [Entry 230011], the inhibition at 10 µM was determined as 40.3%.
On the same count and under the same terms, the figure for `CS(=O)(=O)Nc1ccc(N2CCN(CCC3CC4(CCCC4)C(=O)O3)CC2)cc1` (centres unmarked) [Entry 230008] is 33.2%.
On to `COc1ccc(N2CCN(CC[C@H]3CC(C)(C)C(=O)O3)CC2)cc1` [Entry 230046], for which the IC50 worked out at 10000 nM and the inhibition at 10 µM amounted to 53.5%.
The corresponding values for `CCC1(CC)CC(CCN2CCc3ccc(Cl)cc3C2)OC1=O` (centres unmarked) [Entry 230070] are 7.5 nM and 100%.
In the case of `O=C1OC(CCN2CCN(c3ccc(Cl)cn3)CC2)CC12CCCCC2` (centres unmarked) [Entry 160145], the 50% inhibitory concentration (IC50) is 33 nM. Under “single concentration of 10 uM, percent inhibition of radioligand binding”, the “5-HT7 % inhib @ 10 uM” value is 96.7%.
For `CCC1(CC)CC(CCN2CCc3ccc(F)cc3C2)OC1=O` (centres unmarked) [Entry 230071], the IC50 was determined as 9.9 nM and the inhibition at 10 µM is 99.3%.
Consider `O=C1OC(CCN2CCN(c3ccccc3O)CC2)CC12CCCC2` (centres unmarked) [Entry 230014], for which the concentration for half-maximal inhibition (IC50) is 78 nM and the inhibition at 10 µM was 91.5%.
The matching figures for `O=C1OC(CCN2CCN(c3ccccc3O)CC2)CC12CCC2` (centres unmarked) [Entry 230016]: 299 nM and 84.7%.
The corresponding values for `CCC1(CC)C[C@H](CCN2CCN(c3ccncc3)CC2)OC1=O` [Entry 230083] are 5820 nM and 51%.
Turning to `O=C1OC(CCN2CCN(c3ccc4[nH]c(=O)[nH]c4c3)CC2)CC12CCC2` (centres unmarked) [Entry 160152], the IC50 was 2250 nM and the inhibition at 10 µM was 59.5%.
The corresponding values for `CCC1(CC)CC(CCCN2CCN(c3ccccc3)CC2)OC1=O` (centres unmarked) [Entry 230057] are 55 nM and 98.5%.
The matching figures for `CCC1(CC)CC(CCCN2CCN(c3ccccn3)CC2)OC1=O` (centres unmarked) [Entry 230063]: 93 nM and 98.9%.
Regarding `COc1ccccc1N1CCN(CCC2CC3(CCC3)C(=O)O2)CC1` (centres unmarked) [Entry 230015], the half-maximal inhibitory concentration (IC50) is 319 nM and the inhibition at 10 µM came out at 83.4%.
For the compound `O=C1OC(CCN2CCN(c3ccc4[nH]ccc4c3)CC2)CC12CCC2` (centres unmarked) [Entry 160148], the IC50 was found to be 88 nM and the inhibition at 10 µM is 96.5%.
On to `O=C1OC(CCN2CCN(c3ccnc(Cl)c3)CC2)CC12CCCCC2` (centres unmarked) [Entry 160153], for which the 50% inhibitory concentration (IC50) is 4360 nM and the inhibition at 10 µM was determined as 58.2%.
With `COc1ccc(N2CCN(CC[C@@H]3CC(C)(C)C(=O)O3)CC2)cc1` [Entry 230039], the half-inhibitory concentration (IC50) worked out at 10000 nM and the inhibition at 10 µM worked out at 42.6%.
For `CCC1(CC)CC(CCCN2CCN(c3ccc(C)cc3)CC2)OC1=O` (centres unmarked) [Entry 230061], the IC50 came out at 168 nM and the inhibition at 10 µM was determined as 94.9%.
The corresponding values for `CCC1(CC)CC(CCN2CCN(c3ccc4nc(C(F)(F)F)[nH]c4c3)CC2)OC1=O` (centres unmarked) [Entry 230068] are 10000 nM and 44%.
For `O=C1OC(CCN2CCN(c3ccc4[nH]ccc4c3)CC2)CC12CCCC2` (centres unmarked) [Entry 160147], the inhibition at 10 µM was 9%.
On the same count and under the same terms, with `O=C1OC(CCN2CCN(c3cc(Cl)ccn3)CC2)CC12CCCC2` (centres unmarked) [Entry 230010] the figure was 33.5%.
For `CCC1(CC)CC(CCN2CCN(c3ccc4nc(C)[nH]c4c3)CC2)OC1=O` (centres unmarked) [Entry 230069], the IC50 was found to be 10000 nM.
On to `O=C1OC(CCN2CCN(c3ccc4[nH]c(=O)[nH]c4c3)CC2)CC12CCCCC2` (centres unmarked) [Entry 160150], for which the half-maximal inhibitory concentration (IC50) came to 1230 nM and the inhibition at 10 µM came to 76.9%.
For `CCC1(CC)CC(CCCN2CCN(c3ccc(OC)cc3)CC2)OC1=O` (centres unmarked) [Entry 230060], the concentration for half-maximal inhibition (IC50) amounted to 10000 nM and the inhibition at 10 µM is 43.6%.
Regarding `O=C1OC(CCN2CCN(c3ccc4[nH]c(=O)[nH]c4c3)CC2)CC12CCCC2` (centres unmarked) [Entry 160151], the inhibition at 10 µM turned out to be 35.9%.
For the compound `CCC1(CC)CC(CCCN2CCN(c3ccccc3C(C)C)CC2)OC1=O` (centres unmarked) [Entry 230062], the IC50 came to 12 nM and the inhibition at 10 µM is 98.6%.
As for `CCC1(CC)CC(CCCN2CCN(c3ccc(O)cc3)CC2)OC1=O` (centres unmarked) [Entry 230059], the IC50 turned out to be 353 nM and the inhibition at 10 µM was determined as 88.8%.

The IC50 is the concentration at which inhibition is half-maximal.

(Values after patent US10544117B2, “5-hydroxytryptamine receptor 7 activity modulators and their method of use” (Temple University—Of the Commonwealth System of Higher …, priority 2014, dated 2020).)
